Results as given in ChEMBL document CHEMBL1909046, “DrugMatrix in vitro pharmacology data”.
*1 amine or outer side, *2 acyl side, *3 side chain or, on linkers, in order; H or OH if unused. Where a SMILES comes first, the peptide text is derived from it. Bridges are numbered along the chain shown (N, C = ends). Roman numbers before positions name the chains, in order. [ ]: non-standard residue; d: D form. Actinocin(1to9) = Cc1c2oc3c(C)ccc(C(=O)[*:2])c3nc-2c(C(=O)[*:1])c(N)c1=O; NMeV = CN[C@H](C(=O)O)C(C)C; Sar = CNCC(=O)O

Assays:
[1] = biological target: T1, Alpha-2A adrenergic receptor (Homo sapiens, UniProt P08913); type: cell membranes, Sf9, Membrane; note: in other assays of this panel Not Active means under 50% inhibition at 10 µM
T1 sequence (P08913 whole entry): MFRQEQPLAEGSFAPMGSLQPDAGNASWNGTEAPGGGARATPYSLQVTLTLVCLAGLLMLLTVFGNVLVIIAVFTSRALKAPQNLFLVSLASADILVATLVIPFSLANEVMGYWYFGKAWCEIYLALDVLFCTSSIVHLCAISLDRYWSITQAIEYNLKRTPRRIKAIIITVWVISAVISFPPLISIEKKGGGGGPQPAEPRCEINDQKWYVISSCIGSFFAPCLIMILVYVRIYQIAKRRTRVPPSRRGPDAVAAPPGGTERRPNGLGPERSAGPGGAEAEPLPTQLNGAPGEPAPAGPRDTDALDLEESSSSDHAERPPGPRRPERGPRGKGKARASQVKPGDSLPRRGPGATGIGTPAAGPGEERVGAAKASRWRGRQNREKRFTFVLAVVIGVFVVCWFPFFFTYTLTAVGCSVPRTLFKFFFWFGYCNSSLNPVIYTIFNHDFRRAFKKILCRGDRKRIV

[2] = biological target: Beta-2 adrenergic receptor (Homo sapiens, UniProt P07550); experiment: DRUGMATRIX: Adrenergic beta2 radioligand binding (ligand: [3H] CGP-12177); type: cell membranes, Membrane; conditions: cho; Not Active = under 50% inhibition at 10 µM
[3] = DRUGMATRIX: Sigma2 radioligand binding (ligand: [3H] Ifenprodil); type: cell membranes, Rattus norvegicus, Wistar, Brain, Membrane; conditions: Not Active = under 50% inhibition at 10 µM
[4] = biological target: Cannabinoid receptor 1 (Homo sapiens, UniProt P21554); type: cell membranes, Membrane; conditions: chem-1; note: in other assays of this panel Not Active means under 50% inhibition at 10 µM
[5] = DRUGMATRIX: Leukotriene, BLT (LTB4) radioligand binding (ligand: [3H]LTB4); type: cell membranes, Membrane; conditions: u-937; Not Active = under 50% inhibition at 10 µM
[6] = biological target: Protein phosphatase 3 catalytic subunit alpha (Homo sapiens, UniProt Q08209); design: species or system Escherichia coli;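 note: inhibition of calcineurin (PP2B) enzyme activity, measured with DiFMUP as the substrate; in other assays of this panel Not Active means under 50% inhibition at 10 µM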

Beta-2 adrenergic receptor, sequence (P07550 whole entry): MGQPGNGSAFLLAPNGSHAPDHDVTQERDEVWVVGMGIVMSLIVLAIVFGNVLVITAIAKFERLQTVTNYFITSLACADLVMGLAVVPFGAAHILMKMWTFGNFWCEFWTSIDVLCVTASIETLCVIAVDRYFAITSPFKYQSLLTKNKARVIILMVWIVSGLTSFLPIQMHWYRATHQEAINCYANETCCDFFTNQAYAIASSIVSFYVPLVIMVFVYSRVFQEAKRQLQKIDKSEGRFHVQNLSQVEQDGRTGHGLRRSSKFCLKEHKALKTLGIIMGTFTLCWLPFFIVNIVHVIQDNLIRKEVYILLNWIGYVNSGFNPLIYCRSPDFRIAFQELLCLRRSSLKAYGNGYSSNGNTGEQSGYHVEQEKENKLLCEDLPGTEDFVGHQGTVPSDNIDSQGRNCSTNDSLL
Cannabinoid receptor 1, sequence (P21554 whole entry): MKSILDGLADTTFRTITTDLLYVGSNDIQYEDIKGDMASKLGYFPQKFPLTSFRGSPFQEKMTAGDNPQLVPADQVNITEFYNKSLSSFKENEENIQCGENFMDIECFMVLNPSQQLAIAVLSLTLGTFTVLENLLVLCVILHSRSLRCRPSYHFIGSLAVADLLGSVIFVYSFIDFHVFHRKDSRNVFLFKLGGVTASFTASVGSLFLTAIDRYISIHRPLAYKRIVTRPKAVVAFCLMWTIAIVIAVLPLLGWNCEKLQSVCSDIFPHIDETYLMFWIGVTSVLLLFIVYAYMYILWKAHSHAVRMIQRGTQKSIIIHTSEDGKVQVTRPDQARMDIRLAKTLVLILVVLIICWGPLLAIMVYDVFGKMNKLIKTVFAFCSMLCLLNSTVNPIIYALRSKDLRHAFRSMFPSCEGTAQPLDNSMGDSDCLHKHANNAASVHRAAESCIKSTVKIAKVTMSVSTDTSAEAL

| Compound | IC50 ([1]; sf9) | IC50 [2] | IC50 [3] | Ki [3] | IC50 [4] | IC50 [5] | Ki [5] | IC50 [6] | IC50 ([1]; read-out: IC50) [nM] | Ki ([1]; read-out: Ki) [nM] | IC50 ([3]; read-out: IC50) [nM] | Ki ([3]; read-out: Ki) [nM] |
| --- | --- | --- | --- | --- | --- | --- | --- | --- | --- | --- | --- | --- |
| CCCCN1CCCC[C@H]1C(=O)Nc1c(C)cccc1C [LEVOBUPIVACAINE] | Not Active | Not Active | Not Active | Not Active | Not Active | Not Active | Not Active | Not Active | – | – | – | – |
| OC(Cn1cncn1)(Cn1cncn1)c1ccc(F)cc1F [FLUCONAZOLE] | Not Active | Not Active | Not Active | Not Active | Not Active | Not Active | Not Active | Not Active | – | – | – | – |
| CCCC1O[C@@H]2C[C@H]3[C@@H]4CCC5=CC(=O)C=C[C@]5(C)[C@H]4[C@@H](O)C[C@]3(C)[C@]2(C(=O)CO)O1 (some centres undefined) [BUDESONIDE] | Not Active | Not Active | Not Active | Not Active | Not Active | Not Active | Not Active | Not Active | – | – | – | – |
| Cc1cc(C2CCCCC2)n(O)c(=O)c1 [CICLOPIROX] | Not Active | Not Active | Not Active | Not Active | Not Active | Not Active | Not Active | Not Active | – | – | – | – |
| Cc1c(C)c2c(c(C)c1O)CC[C@@](C)(CCC[C@H](C)CCC[C@H](C)CCCC(C)C)O2 [ALPHA-TOCOPHEROL] | Not Active | Not Active | Not Active | Not Active | Not Active | Not Active | Not Active | Not Active | – | – | – | – |
| Cc1c2oc3c(C)ccc(C(=O)N[C@@H]4C(=O)N[C@H](C(C)C)C(=O)N5CCC[C@H]5C(=O)N(C)CC(=O)N(C)[C@@H](C(C)C)C(=O)O[C@@H]4C)c3nc-2c(C(=O)N[C@@H]2C(=O)N[C@H](C(C)C)C(=O)N3CCC[C@H]3C(=O)N(C)CC(=O)N(C)[C@@H](C(C)C)C(=O)O[C@@H]2C)c(N)c1=O [DACTINOMYCIN] (I: T[dV]P[Sar][NMeV] / II: T[dV]P[Sar][NMeV]; ester I:1-I:C, II:1-II:C; linker I:N-II:N via Actinocin(1to9)) | Not Active | Not Active | Not Active | Not Active | Not Active | Not Active | Not Active | Not Active | – | – | – | – |
| CC1(C)S[C@@H]2[C@H](NC(=O)Cc3ccccc3)C(=O)N2[C@H]1C(=O)O [PENICILLIN G] | Not Active | Not Active | Not Active | Not Active | Not Active | Not Active | Not Active | Not Active | – | – | – | – |
| C[C@H](CCC(=O)O)[C@H]1CC[C@H]2[C@@H]3[C@H](O)C[C@@H]4C[C@H](O)CC[C@]4(C)[C@H]3C[C@H](O)[C@]12C [CHOLIC ACID] | Not Active | Not Active | Not Active | Not Active | Not Active | Not Active | Not Active | Not Active | – | – | – | – |
| CN(Cc1ccc(C(C)(C)C)cc1)Cc1cccc2ccccc12 [BUTENAFINE] | – | Not Active | – | – | Not Active | Not Active | Not Active | Not Active | 3640 | 1370 | 255 | 157 |
| N=C(N)NCCN1CCCCCCC1 [GUANETHIDINE] | Not Active | Not Active | Not Active | Not Active | Not Active | Not Active | Not Active | Not Active | – | – | – | – |
| C[C@H]1O[C@@H](O[C@H]2[C@@H](O)C[C@H](O[C@H]3[C@@H](O)C[C@H](O[C@H]4CC[C@@]5(C)[C@H](CC[C@@H]6[C@@H]5C[C@@H](O)[C@]5(C)[C@@H](C7=CC(=O)OC7)CC[C@]65O)C4)O[C@@H]3C)O[C@@H]2C)C[C@H](O)[C@@H]1O [DIGOXIN] | Not Active | Not Active | Not Active | Not Active | Not Active | Not Active | Not Active | Not Active | – | – | – | – |
